Laboratory results taken from patent US6655379B2, “Aerosolized active agent delivery” (Nektar Therapeutics, priority 1998, dated 2003).

Tests used:
[1] = human, in vivo
[2] = in vivo; cited from earlier work

| Substance | therapeutic effect, comparison of flow rates (dry powder inhaled, flow rates below 17 liters per minute vs above 17 liters per minute) | lung deposition, comparison of flow rates (human, in vivo) | bioavailabilities, comparison of flow rates [1] | times to peak concentration, comparison of flow rates [1] | efficiency of absorption as compared to subcutaneous delivery [2] |
| --- | --- | --- | --- | --- | --- |
| Albuterol sulfate | increased therapeutic effect | higher lung deposition | – | – | – |
| Human calcitonin: Powders containing 26.7% human calcitonin (Ciba-Geigy), spray dried with mannitol and citrate buffer | – | – | higher bioavailabilities | lower times to peak concentration | – |
| Low molecular weight heparin | – | – | higher bioavailabilities | lower times to peak concentration | – |
| semi-synthetic human insulin: semi-synthetic human insulin delivered by nebulizer to six diabetic children (Elliot et al) | – | – | – | – | 20-25% |
